# US20140329776A1, “Mitochondria-Targeted Antioxidants for Treatment of Age-Related Brain Disorders” (MITOTECH S.A., priority 2011, published 2014)
# Legend:
# Format in all cases: in vivo, rat
# Wistar rats [1] = test: elevated plus maze, age-dependent behavioral defects; conditions: 14-month-old rats
# Excerpt: Rats of 3 months and 14 months old were investigated. An elevated plus maze with two open and two closed arms was used. Young animals placed in the maze center entered both types of arms with equal probability (FIGS. 2A and 2C). However, the 14-month-old rats preferred to enter the closed arms only (FIG. 2D), the probability of entering the open arms being extremely low. If, nevertheless, a 14-month-old rat entered an open arm, the animal immediately left this arm (FIG. 2B). […] This difference was also abolished by SkQ1 (Stefanova, et al., J. Alzheimer's Dis. 21:479-491 (2010)).
# Wistar rats [2] = test: open field test 4 hours after ethanol narcosis; conditions: SkQ1 250 nM orally after ethanol narcosis; vs negative control, p<0.05
# Experimental: FIG. 5 is a schematic representation of the behavior parameters in the open field test 4 hours after ethanol narcosis of all groups in % to intact control. (*−p<0.05 for SKQ-1 250 nM compared to negative control);
# In these experiments, 6 groups of experimental animals (Wistar rats) were used. (1) The Intact Control group (n=12), had no ethanol narcosis, and were orally administered a normal isotonic 0.9% NaCl solution; (2) the Negative Control group (n=12) was orally administered a normal physiological solution after ethanol narcosis; (3) The SkQ1 50 nM control group (n=12) was orally administered SkQ1 in a concentration 50 nM after ethanol narcosis; (4) The SkQ1 250 nM control group (n=12) was orally administered SkQ1 in a concentration of 250 nM after ethanol narcosis; (5) The SkQ1 1250 nM control group (n=12) was orally administered SkQ1 in a concentration of 1250 nM after ethanol narcosis; (6) the SkQ1 1250 nM intr control group (n=13) was intraperitoneally administered SkQ1 in a concentration of 1250 nM after ethanol narcosis.
# In the Negative Control group ethanol intoxication caused a decrease of locomotor activity compared to Intact Control group: decreased track length (p<0.05), movement time (p<0.05), mean speed (p<0.05) and increased immobilization time (p<0.05) (FIG. 4). […]
# [3] = tested on: chronically alcoholised rats; test: consumption of 15% ethanol solution after deprivation; body weight
# Experimental: FIG. 12 is a graphic representation showing the consumption of 15% ethanol solution after deprivation in ml (*−p<0.01 on 1st day of alcoholisation SKQ-1 to negative control; #—p<0,05 for average ethanol consumption for 1-36 days SKQ-1 to negative control).
# Male albino rats had free access to a 15% ethanol solution, as well as to food and water. After 6 months of alcoholisation, animals with average consumption more than 11 ml of 15% ethanol solution were divided into two even groups and subjected to the following treatment. The Negative Control group (n=16) (chronically alcoholised rats) were orally administered 1 ml per kg of isotonic 0.9% NaCl solution every two days for 20 days during alcohol deprivation. The SkQ1 group (n=17) (chronically alcoholised rats) were orally administered 1 ml per kg of SkQ1 250 nM solution every two days for 20 days during alcohol deprivation. The Intact Control group (n=10) (animals had no previous contact with ethanol) were orally administered 1 ml per kg of normal physiological solution every two days for 20 days.
# After behavioral testing, ethanol consumption of 15% solution was measured for 45 days. The level of ethanol consumption during first day in the SkQ1 group was lower (p<0.01) than in the Negative Control group. The decreased ethanol consumption during first day indicates lower level of ethanol craving after SkQ1 administration. […]
# Wistar rats [4] = test: acoustical startle reflex, pre-impulse inhibition in offspring of rats with hyperhomocysteinemia; conditions: pups day 45
# Excerpt: FIG. 13 is a graphic representation showing the inhibition of startle reaction to loud stimulus by pre-impulse in rats, where the histogram bars indicate the mean level of startle reaction after pre-stimulus as % to that of control group of rats (without hyperhomocisteinemia). l-m corresponds to group of rats treated with high L-methionine diet, and skq+lm corresponds to group of rats treated with high L-methionine diet and SkQ1.
# FIG. 14 is a graphic representation showing habituation of rats to double acoustic stimulus in normal conditions, under hyperhomocisteinemia and under hyperhomocisteinemia treated with SkQ1, where motor reaction to the double stimulus and P values for different pairs of groups is indicated.
# An experiment was performed on 161 female Wistar rats (n=12) with body weight 200 g-250 g and their offspring (n=149) from 0 to 1.5 months old. All animals were SPF-category and were housed under the standard conditions according to GLP-regulations (controlled microbiological conditions, light-dark cycle 12/12 hours, ventilation rate 10-12 V/h, room temperature 22+2° C., with maximum change 1° C. per day, humidity 30-70%). Rats were housed in individual cages with free access to food and water.
# Each female rat was held with 3 male rats for one night. First day of the pregnancy was considered to be the day when spermatozoon were found in a vaginal smear. […]
# [5] = 250 nmol/kg daily in food for 10 weeks
smiles,measurement,setting,value
"CC1=C(C)C(=O)C(CCCCCCCCCC[P+](c2ccccc2)(c2ccccc2)c2ccccc2)=CC1=O [SkQ1, plastoquinonyl decyltriphenyl-phosphonium]",age effect in elevated plus maze,Wistar rats [1]; 250 nmol/kg body weight daily in food for 10 weeks,completely reversed
same,probability of entering an open arm,Wistar rats [1]; [5],as high as for young rats
same,time spent in open arm,Wistar rats [1]; [5],almost as long as for the young rodents
same,immobilization time,Wistar rats [2],decreasing
same,track length,Wistar rats [2],increasing
same,"average ethanol consumption during the next month, lower than Negative Control",[3]; p<0.05,~2 ×
same,level of ethanol consumption during first day,"[3]; vs Negative Control, p<0.01",lower
same,parameters of pre-impulse inhibition of the progeny,Wistar rats [4]; SkQ1 250 nM/kg orally to mother rats once per 2 d during lactation,normalized
same,non stable and very high reflex reaction on sound stimuli (effect of hyperhomocisteinemia),Wistar rats [4]; SkQ1-treated group,significantly reduced
